Data from patent publication US20150352038A1, “A DOSAGE FORM FOR ADMINISTERING AN ACTIVE PRINCIPLE FOR ACCELERATED SLEEP INDUCTION AND/OR FOR TREATING SLEEP DISORDERS AND/OR FOR TREATING A CENTRAL NERVOUS SYSTEM DISORDER” (priority 2013, published 2015).
Values after ≈ are worked out from the molar mass of the structure shown. Counter-ions that a name gives are not always drawn.

Key:
[1] = Bioavailability after oral administration; type: in vivo
[2] = cited from earlier work
[3] = oral; % of the ingested/administered dose; cited from earlier work
[4] = cited from earlier work; remark: listed apart in the source
[5] = Time to onset of calming / sedative / sleep-inducing effect; type: in vivo; conditions: hydro-alcoholic solution of the invention via the oral mucous membrane
plasma proteins = conditions: cited from earlier work; for bonded to plasma proteins: in the blood stream
[6] = Stability in alcohol solution; type: physicochemical; conditions: degree of alcohol starting from 35°
Experimental: In the studies, the doses normally administered orally, at bedtime, varied over the range 0.3 mg to 5 mg. High doses of Melatonin may exert a negative paradoxical action that propagates to phases that are not phases of responding to Melatonin.

[7] = administered orally, doses of 5 mg or 10 mg; cited from earlier work

Compound	half-life in the organism ([2]; in vivo)	bioavailability when taken orally [3]	solubility in ethanol, in words ([4]; ethanol)	further results
COc1ccc2cccc(CCNC(C)=O)c2c1 [Agomelatine]	less than 2 h	less than 5%	–	fraction of the orally administered dose destroyed / lost [1]: 95%
Cc1nnc2n1-c1sc(Br)cc1C(c1ccccc1Cl)=NC2 [Brotizolam]	4.4 h	around 50%	–	–
CN1CCC(=C2c3ccccc3C=Cc3ccccc32)CC1 [Cyproheptadine]	–	~25%	–	half-life, compared in words ([2]; compared with Doxylamine): longer than the half-life of Doxylamine
CN(C)CCOC(C)(c1ccccc1)c1ccccn1 (stereo not shown) [Doxylamine]	around 3.5 h	24.7%	easily soluble in ethanol	time until calming effect / drowsiness appears, in words [5]: within a few minutes
CN1CCN(C(=O)O[C@H]2c3nccnc3C(=O)N2c2ccc(Cl)cn2)CC1 [Eszopiclone]	6 h	–	–	bonded to plasma proteins (plasma proteins): 60%
COc1ccc2[nH]cc(CCNC(C)=O)c2c1 [Melatonin, N-Acetyl-5-Methoxytryptamine]	–	~15%	very soluble in ethanol	stability in alcohol solution [6]: increases with increasing degree of alcohol; half-life ([2]; in vivo): greater than 50 min
Cc1ncc2n1-c1ccc(Cl)cc1C(c1ccccc1F)=NC2 [Midazolam]	–	36%	freely soluble in ethanol	solubility in water ([4]; water): 0.024 mg/mL (≈ 0.0737 mM); bonding to plasma proteins, in words (plasma proteins): bonds strongly to plasma proteins
Cc1ccc(-c2nc3ccc(C)cn3c2CC(=O)N(C)C)cc1 [Zolpidem tartrate]	–	–	–	solubility in water and in ethanol/alcohol, in words [4]: less soluble in water and in ethanol than Zolpidem base
Cc1ccc(-c2nc3ccc(C)cn3c2CC(=O)N(C)C)cc1 [Zolpidem]	2 to 3 h	≤ 70%	quite soluble in ethanol	solubility in ethanol ([4]; ethanol): 50 mg/mL (≈ 163 mM); time until effect is perceptible [7]: at least 15 min; time until calming effect / drowsiness appears, in words [5]: within only a few minutes; bonded to plasma proteins (plasma proteins): 92%
CN1CCN(C(=O)OC2c3nccnc3C(=O)N2c2ccc(Cl)cn2)CC1 (stereo not shown) [Zopiclone]	–	–	–	solubility in water and in ethanol/alcohol, in words [4]: not very soluble in water and alcohol
(S)—N-(2-(1,6,7,8-tetrahydro-2H-indeno-(5,4)furan-8-yl)ethyl)propionamide [Ramelteon]	–	1.8%	very easily soluble in ethanol	fraction of the orally administered dose destroyed / lost [1]: 98.2%; bonded to plasma proteins (plasma proteins): 82%
